Measured values taken from patent US7915291B2, “Hepatitis C virus inhibitors” (Bristol-Myers Squibb Company, priority 2002, dated 2011).
Where two headings read alike, the source gives them in different places.

Legend:
[1] = system: HCV replicon in Huh7 cells; experiment: HCV replicon cell-based assay; parameters: species or system HCV strain 1B; conditions: Hepatitis C virus, Huh-7; HCV replicon, Huh7 cells; read-out: EC50 range
[2] = target: HCV NS3/4A protease complex, BMS strain (UniProt P27958, C1454S/C1711G, species not given/STRAIN_BMS); experiment: Recombinant HCV NS3/4A protease complex FRET peptide assay (BMS strain); assay type: biochemical, HCV genotype 1a
Procedure, shortened: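 Recombinant BMS-strain NS3/4A (His-tagged NS4A with three-lysine tail, E. coli) at 2-3 nM preincubated 1 min with compound, then 2 μM ester-linked NS4A/NS4B-based FRET peptide added. Fluorescence followed in real time ~15 min at 25° C. Percent inhibition from slope of linear fluorescence change versus no-compound control.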

[3] = NS3/4A BMS strain; read-out: IC50 range
[4] = read-out: IC50 range; NS3/4A BMS strain

C=C[C@@H]1C[C@]1(NC(=O)[C@@H]1CC(Oc2nccc3cc(OC)ccc23)CN1C(=O)[C@@H](NC(=O)OC(C)(C)C)C(C)(C)O)C(=O)NS(=O)(=O)C1CC1 (stereo partly shown) [Compound 89]
EC50 [1]: < 100 nM | IC50 [2, 3]: < 100 nM

C=C[C@@H]1C[C@]1(NC(=O)[C@@H]1C[C@@H](Oc2nccc3cc(OC)c(Cl)cc23)CN1C(=O)[C@@H](NC(=O)OC(C)(C)C)C(C)(C)C)C(=O)NS(=O)(=O)C1CC1 [Compound 273]
EC50 [1]: < 100 nM | IC50 [2, 3]: < 100 nM

C=C[C@@H]1CC1(NC(=O)[C@@H]1CC(Oc2nccc3cc(OC)ccc23)CN1C(=O)[C@@H](NC(=O)CO[C@H]1C[C@@H](C)CC[C@@H]1C(C)C)C(C)(C)C)C(=O)NS(=O)(=O)C1CC1 (stereo partly shown) [Compound 60]
EC50 [1]: 1000 to 10000 nM | IC50 [2, 3]: < 100 nM

C=C[C@@H]1C[C@]1(NC(=O)[C@@H]1C[C@@H](Oc2nccc3cc(OC)ccc23)CN1C(=O)[C@@H](NC(=O)N[C@@H](C(=O)OC)C(C)C)C(C)(C)C)C(=O)NS(=O)(=O)C1CC1 [Compound 142]
EC50 [1]: < 100 nM | IC50 [2, 3]: < 100 nM

C=C[C@@H]1C[C@]1(NC(=O)[C@@H]1CC(Oc2nccc3cc(OC)ccc23)CN1C(=O)[C@@H](NC(=O)c1cnccn1)C(C)(C)C)C(=O)NS(=O)(=O)C1CC1 (stereo partly shown) [Compound 63]
EC50 [1]: 1000 to 10000 nM | IC50 [2, 3]: < 100 nM

C=C[C@@H]1C[C@]1(NC(=O)[C@@H]1CC(Oc2nccc3cc(OC)ccc23)CN1C(=O)[C@@H](NC(=O)OC(C)(C)c1ccc(C(F)(F)F)cc1)C(C)(C)C)C(=O)NS(=O)(=O)C1CC1 (stereo partly shown) [Compound 73]
EC50 [1]: 100 to 1000 nM | IC50 [2, 3]: < 100 nM

C=C[C@@H]1C[C@]1(NC(=O)[C@@H]1C[C@@H](Oc2nccc3cc(OC)ccc23)CN1C(=O)[C@@H](NC(=O)OC(C)(C)C)[C@H](C)OCC)C(=O)NS(=O)(=O)C1CC1 [Compound 96]
EC50 [1]: < 100 nM | IC50 [2, 4]: < 100 nM

C=C[C@@H]1C[C@]1(NC(=O)[C@@H]1C[C@@H](Oc2nccc3cc(OC)ccc23)CN1C(=O)[C@H](CC(=O)OCc1ccccc1)NC(=O)OC(C)(C)C)C(=O)NS(=O)(=O)C1CC1 [Compound 137]
EC50 [1]: < 100 nM | IC50 [2, 3]: < 100 nM

C=CC1C[C@]1(NC(=O)[C@@H]1C[C@@H](Oc2nccc3c4c(ccc23)OCO4)CN1C(=O)[C@@H](NC(=O)OC(C)(C)C)C(C)(C)C)C(=O)NS(=O)(=O)C1CC1 (stereo partly drawn) [Compound 211, BOCNH-P3(L-t-BuGly)-P2-[(4R)-(1,3-Dioxa-7-aza-cyclopenta[α]naphthalen-6-ol)-S -proline]-P1(1R,2S VinylAcca)-CONHSO2Cyclopropane]
EC50 [1]: < 100 nM | IC50 [2, 3]: < 100 nM

C=C[C@@H]1C[C@]1(NC(=O)[C@@H]1C[C@@H](Oc2nccc3cc(-n4cccn4)ccc23)CN1C(=O)[C@@H](NC(=O)OC(C)(C)C)C(C)(C)C)C(=O)NS(=O)(=O)C1CC1 [Compound 21]
EC50 [1]: < 100 nM | IC50 [2, 3]: < 100 nM

C=C[C@@H]1C[C@]1(NC(=O)[C@@H]1C[C@@H](Oc2ccc3ccccc3n2)CN1C(=O)[C@@H](NC(=O)OC(C)(C)C)C(C)(C)C)C(=O)NS(=O)(=O)C1CC1 [Compound 7]
EC50 [1]: 100 to 1000 nM | IC50 [2, 3]: < 100 nM

C=C[C@@H]1C[C@]1(NC(=O)[C@@H]1C[C@@H](Oc2nccc3cc(OC)ccc23)CN1C(=O)[C@@H](NC(=O)N(C)[C@H](C(=O)OC)C(C)C)C(C)(C)C)C(=O)NS(=O)(=O)C1CC1 [Compound 154]
EC50 [1]: 100 to 1000 nM | IC50 [2, 3]: < 100 nM

C=C[C@@H]1C[C@]1(NC(=O)[C@@H]1C[C@@H](Oc2cncc(-c3ccccc3)c2)CN1C(=O)[C@@H](NC(=O)OC(C)(C)C)C(C)(C)C)C(=O)NS(=O)(=O)C1CC1 [Compound 420]
EC50 [1]: 100 to 1000 nM | IC50 [2, 3]: < 100 nM

C=C[C@@H]1C[C@]1(NC(=O)[C@@H]1C[C@@H](Oc2nccc3c4c(ccc23)OCC4)CN1C(=O)[C@@H](NC(=O)OC(C)(C)C)C(C)(C)C)C(=O)NS(=O)(=O)C1CC1 [Compound 267]
EC50 [1]: < 100 nM | IC50 [2, 3]: < 100 nM

C=CC1C[C@]1(NC(=O)[C@@H]1C[C@@H](Oc2nccc3cc(F)ccc23)CN1C(=O)[C@@H](NC(=O)OC(C)(C)C)C(C)(C)C)C(=O)NS(=O)(=O)C1CC1 (stereo partly drawn) [Compound 187, BOCNH-P3(L-tert-BuGly)-P2[(4R)-(6-fluoro isoquinolin-1-oxo)-S -proline]-P1(1R,2S Vinyl Acca)-CONHSO2-Cyclopropane]
EC50 [1]: 100 to 1000 nM | IC50 [2, 3]: < 100 nM

C=C[C@@H]1C[C@]1(NC(=O)[C@@H]1C[C@@H](Oc2nccc3cc(OC)ccc23)CN1C(=O)[C@@H](NC(=O)NC(C)(C)CC)[C@H](C)OC)C(=O)NS(=O)(=O)C1CC1 [Compound 102]
EC50 [1]: < 100 nM | IC50 [2, 3]: < 100 nM

C=C[C@@H]1C[C@]1(NC(=O)[C@@H]1C[C@@H](Oc2nccc3ccccc23)CN1C(=O)[C@@H](NC(=O)OCCF)C(C)(C)C)C(=O)NS(=O)(=O)C1CC1 [Compound 126]
EC50 [1]: 100 to 1000 nM | IC50 [2, 3]: < 100 nM

C=C[C@@H]1C[C@]1(NC(=O)[C@@H]1C[C@@H](Oc2nccc3cc(OC)ccc23)CN1C(=O)[C@@H](NC(=O)OC(C)C)C(C)(C)C)C(=O)NS(=O)(=O)C1CC1 [Compound 17]
EC50 [1]: < 100 nM | IC50 [2, 3]: < 100 nM

C=C[C@@H]1C[C@]1(NC(=O)[C@@H]1C[C@@H](Oc2ccnc3cc(OC)ccc23)CN1C(=O)[C@@H](NC(=O)OC(C)(C)C)C(C)(C)C)C(=O)NS(=O)(=O)C1CC1 [Compound 375]
EC50 [1]: < 100 nM | IC50 [2, 3]: < 100 nM

C=C[C@@H]1C[C@]1(NC(=O)[C@@H]1C[C@@H](Oc2cc(C3CC3)nc3cc(OC)ccc23)CN1C(=O)[C@@H](NC(=O)OC(C)(C)C)C(C)(C)C)C(=O)NS(=O)(=O)C1CC1 [Compound 373]
EC50 [1]: < 100 nM | IC50 [2, 3]: < 100 nM

C=CC1C[C@]1(NC(=O)[C@@H]1C[C@@H](Oc2nccc3cc(C(=O)N(C)C)ccc23)CN1C(=O)[C@@H](NC(=O)OC(C)(C)C)C(C)(C)C)C(=O)NS(=O)(=O)C1CC1 (stereo partly drawn) [Compound 244, BOCNH-P3(L-t-BuGly)-P2-[(4R) -(6-carboxylic acid dimethylamideisoquinoline-1-oxo)-S-proline]-P1(1R,2S VinylAcca) -CONHSO2Cyclopropane]
EC50 [1]: 10000 to 100000 nM | IC50 [2, 3]: < 100 nM

C=C[C@@H]1CC1(NC(=O)[C@@H]1CC(Oc2nccc3cc(OC)ccc23)CN1C(=O)[C@@H](NC(=O)NC(C)(C)CC)C(C)(C)C)C(=O)NS(=O)(=O)C1CC1 (stereo partly shown) [Compound 76]
EC50 [1]: < 100 nM | IC50 [2, 4]: < 100 nM

C=C[C@@H]1C[C@]1(NC(=O)[C@@H]1C[C@@H](Oc2nccc3cc(OC)ccc23)CN1C(=O)C(NC(=O)N[C@H](C(=O)OC)C(C)C)C(C)(C)C)C(=O)NS(=O)(=O)C1CC1 (stereo partly shown) [Compound 141]
EC50 [1]: < 100 nM | IC50 [2, 3]: < 100 nM

C=C[C@@H]1C[C@]1(NC(=O)[C@@H]1C[C@@H](Oc2nc(-c3ccoc3)cc3ccccc23)CN1C(=O)[C@@H](NC(=O)OC(C)(C)C)C(C)(C)C)C(=O)NS(=O)(=O)C1CC1 [Compound 30]
EC50 [1]: < 100 nM | IC50 [2, 3]: < 100 nM

C=C[C@@H]1C[C@]1(NC(=O)[C@@H]1C[C@@H](Oc2cc(C(F)(F)F)nc3ccc(C)cc23)CN1C(=O)[C@@H](NC(=O)OC(C)(C)C)C(C)(C)C)C(=O)NS(=O)(=O)C1CC1 [Compound 410]
EC50 [1]: < 100 nM | IC50 [2, 3]: < 100 nM

C=CC1CC1(NC(=O)[C@@H]1C[C@@H](Oc2cc(-c3ccccc3)nc3c(C)noc23)CN1C(=O)[C@@H](NC(=O)OC(C)(C)C)C(C)(C)C)C(=O)NS(=O)(=O)C1CC1 (stereo partly shown) [Compound 10]
EC50 [1]: < 100 nM | IC50 [2, 3]: < 100 nM

C=C[C@@H]1C[C@]1(NC(=O)[C@@H]1C[C@@H](Oc2cc(C)nc(-c3cccs3)c2)CN1C(=O)[C@@H](NC(=O)OC(C)(C)C)C(C)(C)C)C(=O)NS(=O)(=O)C1CC1 [Compound 438]
EC50 [1]: 100 to 1000 nM | IC50 [2, 3]: < 100 nM

CC[C@@H]1C[C@]1(NC(=O)[C@@H]1C[C@@H](Oc2nccc3cc(OC)ccc23)CN1C(=O)[C@@H](NC(=O)OC(C)(C)C)C(C)(C)C)C(=O)NS(=O)(=O)C1CC1 [Compound 14]
EC50 [1]: < 100 nM | IC50 [2, 3]: < 100 nM

C=CC1C[C@]1(NC(=O)[C@@H]1C[C@@H](Oc2nccc(-c3cccs3)n2)CN1C(=O)[C@@H](NC(=O)CC1CC1)C(C)(C)C)C(=O)NS(=O)(=O)C1CC1 (stereo partly shown) [Compound 338]
EC50 [1]: 1000 to 10000 nM | IC50 [2, 3]: < 100 nM

CC[C@@H]1C[C@]1(NC(=O)[C@@H]1C[C@@H](Oc2nccc3cc(OC)c(F)cc23)CN1C(=O)[C@@H](NC(=O)OC(C)(C)C)C(C)(C)C)C(=O)NS(=O)(=O)C1CC1 [Compound 298]
EC50 [1]: < 100 nM | IC50 [2, 3]: < 100 nM

C=CC1C[C@]1(NC(=O)[C@@H]1C[C@@H](Oc2nc(-c3csc(N(CC)CC)n3)cc3cc(OC)ccc23)CN1C(=O)[C@@H](NC(=O)OC(C)(C)C)C(C)(C)C)C(=O)NS(=O)(=O)C1CC1 (stereo partly shown) [Compound 321]
EC50 [1]: 100 to 1000 nM | IC50 [2, 3]: < 100 nM

C=C[C@@H]1C[C@]1(NC(=O)[C@@H]1C[C@@H](Oc2nccc3ccccc23)CN1C(=O)[C@@H](NC(=O)O[C@@H]1C[C@H](C)CC[C@H]1C(C)C)C(C)(C)C)C(=O)NS(=O)(=O)C1CC1 [Compound 128]
EC50 [1]: 100 to 1000 nM | IC50 [2, 3]: < 100 nM
